{"source": "patent US8637439B2", "about": "“Bathing gel with improved environmental profile” (Coty Inc., priority 2009, dated 2014)", "key": {"[1]": {"tested_on": "aquatic trophic levels (fish, crustaceous, algae)", "assay": "Acute aquatic toxicity (aquatic trophic levels)", "assay_type": "in vivo", "conditions": "L(E)C50/SFacute", "excerpt": "(§1) A comparison of the relative aquatic toxicity profile of the long-chain alkyl hydroxyalkyl cellulose derivative compared to anionic alketh surfactant is shown in Table 3.\n(§2) The terms used are defined as follows: • LC50 or EC50: Lethal or effect concentration 50=Concentration in water having 50% chance of causing adverse effects or death to aquatic life) • SFacute: Safety Factor, determined according the number of trophic levels (fish, crustaceous, algae) studied (the largest, the best) • TFacute: L(E)C50/SFacute • NOEC: No observed effect concentration=The highest concentration for which the difference from the control group is not statistically significant in a long term study • SFchronic: Safety Factor, determined according the number of trophic levels (fish, crustaceous, algae) studied • TFchronic: NOEC/SFchronic"}, "[2]": {"tested_on": "aquatic trophic levels (fish, crustaceous, algae)", "assay": "Chronic aquatic toxicity (aquatic trophic levels)", "assay_type": "in vivo", "excerpt": "as §1, §2"}}}
{"sequence": "C 12/15 A 1-3 EO sulfate", "values": [{"measurement": "TFacute", "setting": "[1]", "result": 0.0041}, {"measurement": "TFchronic", "setting": "[2]; NOEC/SFchronic", "result": 0.01}, {"measurement": "NOEC", "setting": "[2]; chronic toxicity, long term study", "result": 0.1}]}
